Like-named read-outs stand apart in the source and are kept apart here.
What was measured:
[1] = test system: Astroglial cells derived from the mouse forebrain; experiment: Synthesis-stimulating activity on NGF (NGF level in culture medium by enzyme immunoassay); type: cell-based; conditions: ratio to DMSO control = 1.0
Description: The activity of accelerating secretion of NGF was evaluated by the following method.
Each compound shown in Table 1 was dissolved in dimethylsulfoxide (DMSO) to adjust the concentration in the range of 2 mg/ml to 10 mg/ml.
Astroglial cells derived from the mouse forebrain (cells that synthesize and secrete NGF)
Astroglial cells obtained from the mouse forebrain were cultured into 8 x 10⁵ cells/ml in Dulbecco's modified Eagle's medium obtained from Gibco, glucose-rich, containing 20% fetal calf serum, 100 units/ml of penicillin and 100 µg/ml of streptomycin. A 0.1 ml/well aliquot was inoculated on a 96-well plate obtained from Falcon and having an area of 0.32 cm² per well and cultured at 37°C in an atmosphere of 5% CO₂. The culture medium was removed 72 hours later and instead, a 0.1 ml/well aliquot of fresh Dulbecco's modified Eagle's medium containing 0.5% bovine albumin powders obtained from Armour, 100 units/ml of penicillin and 100 µg/ml of streptomycin was supplemented to the system followed by culturing at 37°C in 5% CO₂. The above medium containing the compound each having various concentrations was exchanged 72 hours later. For the purpose of comparison, the medium which contains only DMSO was also prepared (control).
The synthesis-stimulating activity on NGF by the compound of the present invention is shown in terms of a ratio when the NGF level in the control containing only DMSO was made 1.0.

[2] = test system: both common carotid artery-occlusion model Mongolian gerbils; experiment: Test on delayed neuronal death induced by cerebral ischemia (3 min occlusion of both common carotid arteries, histology of hippocampus after 7 days); type: in vivo; conditions: for Incidence Frequency of Neuronal Damage -: score 0 (-), normal neurons; for Incidence Frequency of Neuronal Damage +: score 1 (+), a few neurons damaged; for Incidence Frequency of Neuronal Damage ++: score 2 (++), many neurons damaged; for Incidence Frequency of Neuronal Damage +++: score 3 (+++), majority of neurons damaged
Description: Neuronal damages induced by cerebral ischemia was evaluated in the both common carotid artery-occlusion model Mongolian gerbils. Male Monglian gerbils, supplied by Shin Nihon Dobutsu Co., Ltd., Saitama, Japan and weighing 60 to 90 g. The gerbils were anesthetized lightly with ether and placed in the supine position. After local infiltration of xylocaine, both common carotid arteries were exposed through a ventral midline incision. The arteries were then clamped with aneurysm clips for 3 minutes. Thereafter the clips were removed and the skin was sutured. Sham operated animals were treated in the same manner, except that clamping was not done. The animals were anesthetized with ether 7 days after the bilateral common carotid arteries had been occluded for 3 minutes, and the brains were perfused with a 10% buffered formalin solution given through the left cardiac ventricle. The hippocampal region was cut coronally into 3- to 4-mm thick slices, embedded in paraffin and processed using the step section technique. The preparations were stained with hematoxylin and eosin. Ischemic neuronal damage was graded on 4 levels from scores 0 to 3: score 0 (-), normal neurons; score 1 (+), a few neurons damaged (as few as one neuron damaged); score 2 (++), many neurons damaged; and score 3 (+++), majority of neurons damaged. Compounds to be tested were suspended in gum arabic or dissolved in physiological saline, which was intraperitoneally given at determined times in doses of 10 mg/kg to 100 mg/kg, before and after the induced ischemia.

[3] = test system: Cerebral cortical neuronal cells from an 18-day-old rat embryo; experiment: Test on neurotrophic activity (living cells counted by fluorescein diacetate fluorescence, with or without hypoxic load); type: cell-based
Description: The neurotrophic activity was determined by the following method. Each compound was dissolved in DMSO to adjust the concentration in the range of 2 mg/ml to 10 mg/ml. Cerebral cortical neuronal cells from an 18-day-old rat embryo […] After 24 hours of incubation, the culture medium was removed and a 0.5 ml/well aliquot of a serum-free fresh DF medium containing the respective compounds having various concentrations, 5 µg/ml of transferrin, 5 µg/ml of insulin and 20 pmoles/ml of progesterone was supplemented to the system. For the purpose of comparison, the medium containing only DMSO was added was also prepared. At this stage, the two same plates were used. After 72 hours of incubation in various medium, hypoxia was loaded on one plate by reducing the concentration of oxygen to the minimum concentration of 1% using a N₂-O₂-CO₂ incubator (manufactured by Tabai, Model BNP-100) and culturing for 4 hours under the conditions. Another plate was cultured in an atmosphere of 5% CO₂ and 95% air, without hypoxic load. After the incubation was continued for further 48 hours, living cells were counted. The culture medium was removed and fluorescein diacetate (FDA) reagent was reacted. After washing with phosphate buffer, pH 7.4, the fluorescent intensity (E x 485/Em 530) was measured by CytoFlour^TM 2300, manufactured by Millipore.

[4] = dose 10, intraperitoneally, 30 mins after ischemia
[5] = dose 10, intraperitoneally, 1 hour after ischemia
[6] = dose 10, intraperitoneally, immediately after ischemia
[7] = no hypoxic load, ratio of fluorescent intensity to DMSO control = 1.0, read-out: Neurotrophic Activity No Hypoxic Load
[8] = 4 h, hypoxic load (1% oxygen, 4 hours), ratio of fluorescent intensity to DMSO control = 1.0, read-out: Neurotrophic Activity Hypoxic Load
[9] = dose 100 mg/kg, intraperitoneally, immediately after ischemia
[10] = dose 100 mg/kg, intraperitoneally, before 30 mins

For Cc1ccc(-c2cc(-c3ccccn3)nc(-c3ccccn3)c2)cc1.Cl.Cl.Cl [Compound 6, 4'-(4-Methylphenyl)-2,2':6',2''-terpyridin trihydrochloride], the “Synthesis-Stimulating Activity on NGF” value ([1]; 100 µg/ml, 24 hours) was 5.0, the fold induction at 10 µg/mL ([1]; Mus musculus, 24 h) was 2 and the fold induction at 30 µg/mL ([1]; Mus musculus, 24 h) was 3.3. The “damages of the hippocampal CAl neurons” value ([2]; intraperitoneally given 30 minutes after or an hour after the ischemia had been induced) was “prevented damages of the hippocampal CAl neurons”, the Incidence Frequency of Neuronal Damage - [2, 4] was 25% and the Incidence Frequency of Neuronal Damage - [2, 5] was 0%. For the same compound, the Incidence Frequency of Neuronal Damage - [2, 6] was 0%, the Incidence Frequency of Neuronal Damage + [2, 4] was 37.5% and the Incidence Frequency of Neuronal Damage + [2, 5] was 50%. For the same compound, the Incidence Frequency of Neuronal Damage + [2, 6] was 75%, the Incidence Frequency of Neuronal Damage ++ [2, 4] was 12.5% and the Incidence Frequency of Neuronal Damage ++ [2, 5] was 25%. For the same compound, the Incidence Frequency of Neuronal Damage ++ [2, 6] was 0%, the Incidence Frequency of Neuronal Damage +++ [2, 4] was 25% and the Incidence Frequency of Neuronal Damage +++ [2, 5] was 25%. The Incidence Frequency of Neuronal Damage +++ [2, 6] was 25%.
In the case of c1ccc(-c2cc(-c3ccncc3)cc(-c3ccccn3)n2)nc1 [Compound 30, 4'-(4-Pyridyl)-2,2':6',2''-terpyridine], the fold induction at 2 µg/mL ([1]; Mus musculus, 24 h, 2 µg/ml, 24 hours, read-out: Synthesis-Stimulating Activity on NGF) is reported as 1, the fold induction at 10 µg/mL ([1]; Mus musculus, 24 h) is reported as 1.2 and the fold induction at 50 µg/mL ([1]; Mus musculus, 24 h, 50 µg/ml, 24 hours, read-out: Synthesis-Stimulating Activity on NGF) is reported as 1.2. It also gave a viability at 2 µg/mL [3, 7] of 420%, a viability at 10 µg/mL [3, 7] of 120% and a viability at 2 µg/mL [3, 8] of 530%. The viability at 10 µg/mL [3, 8] was 130%, the Incidence Frequency of Neuronal Damage - [2, 9] was 100% and the Incidence Frequency of Neuronal Damage + [2, 9] was 0%. The Incidence Frequency of Neuronal Damage ++ [2, 9] was 0% and the Incidence Frequency of Neuronal Damage +++ [2, 9] was 0%.
For CCCCCCCCCCCCCCCCC(CCCCCCCCCCCCCCCC)c1cc[n+](Cc2ccc(-c3cc(-c4ccccn4)nc(-c4ccccn4)c3)cc2)cc1.[Br-] [Compound 29, 4-(1-Hexadecylheptadecyl)-1-[4-(2,2':6',2''-terpyridin-4'-yl)phenylmethyl]pyridinium bromide], the fold induction at 3 µg/mL ([1]; Mus musculus, 24 h, 3 µg/ml) was 1, the fold induction at 10 µg/mL ([1]; Mus musculus, 24 h) was 2 and the fold induction at 30 µg/mL ([1]; Mus musculus, 24 h) was 7.6. It also gave a fold induction at 100 µg/mL ([1]; Mus musculus, 24 h, 100 µg/ml) of 13, a viability at 2 µg/mL [3, 7] of 610% and a viability at 10 µg/mL [3, 7] of 570%. It also gave a viability at 2 µg/mL [3, 8] of 500%, a viability at 10 µg/mL [3, 8] of 300% and an Incidence Frequency of Neuronal Damage - [2, 10] of 42.9%. It also gave an Incidence Frequency of Neuronal Damage + [2, 10] of 14.3%, an Incidence Frequency of Neuronal Damage ++ [2, 10] of 14.3% and an Incidence Frequency of Neuronal Damage +++ [2, 10] of 28.6%.
Cc1ccc(-c2cc(-c3ccccn3)nc(-c3ccccn3)c2)cc1 [Compound 5, 4'-(4-Methylphenyl)-2,2':6',2''-terpyridine] gave a fold induction at 20 µg/mL ([1]; Mus musculus, 24 h, 20 µg/ml) of 10.1, a fold induction at 100 µg/mL ([1]; Mus musculus, 24 h, 100 µg/ml) of 9.8 and an Incidence Frequency of Neuronal Damage - [2, 9] of 25%. For the same compound, the Incidence Frequency of Neuronal Damage + [2, 9] was 50%, the Incidence Frequency of Neuronal Damage ++ [2, 9] was 0% and the Incidence Frequency of Neuronal Damage +++ [2, 9] was 25%.

Reference: patent EP0677293A1, “PHARMACEUTICAL USE OF TERPYRIDINE DERIVATIVE” (priority 1992, dated 1994)
